Experimental data taken from PMC6207338 (Nature medicine, 2018).
Positions count from the first letter of the chain named. Read-outs that look alike come from different tables or passages of the source. Values belong to the compound of their own block, whether it stands above or below them.

Columns and labels:
[1] = biological target: T1, mouse FBP1 Y114F (Mus musculus, UniProt Q9QXD6, Y114F); assay: FBPase coupled assay, mouse FBP1 Y114F; assay type: biochemical; details: untagged Y114F, data not shown
T1 sequence (Q9QXD6 1-338 Y114F): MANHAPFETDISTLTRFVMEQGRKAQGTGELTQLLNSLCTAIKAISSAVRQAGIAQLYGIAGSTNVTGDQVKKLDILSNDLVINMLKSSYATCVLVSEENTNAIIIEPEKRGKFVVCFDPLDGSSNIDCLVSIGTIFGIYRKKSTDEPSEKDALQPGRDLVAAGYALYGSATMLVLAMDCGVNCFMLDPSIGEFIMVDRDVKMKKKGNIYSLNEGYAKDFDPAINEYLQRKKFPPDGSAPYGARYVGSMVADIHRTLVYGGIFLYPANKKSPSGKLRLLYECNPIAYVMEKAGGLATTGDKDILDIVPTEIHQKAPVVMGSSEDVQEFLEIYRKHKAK

[2] = biological target: T2, mouse FBP1 (WT) (Mus musculus, UniProt Q9QXD6); assay: FBPase coupled assay, recombinant mouse FBP1 WT; assay type: biochemical
T2 sequence (Q9QXD6 1-338): T1 sequence (Q9QXD6 1-338 Y114F) with F114Y

[3] = test system: rabbit muscle AMPD1; assay: AMPD1 assay; assay type: biochemical; details: rabbit muscle AMPD1, up to 10 mM
[4] = test system: FBP1^WT/WT (WT) and FBP1^G27P/G27P (KI) mice; assay: Metformin-euglycemic clamp; assay type: in vivo, mouse
[5] = test system: mouse liver; assay: Liver adenine/Z nucleotides and metabolites after drug treatment; assay type: in vivo; details: 250 mg.kg^-1 p.o.
[6] = test system: AMPK; assay: AMPK activation in tissue by Western blotting / kinase assay; assay type: in vivo, mouse
[7] = random blood samples from diabetic subjects; cited from earlier work
[8] = rats, cited from earlier work
[9] = test system: isolated hepatocytes; details: lactate and pyruvate as sole carbon sources, 1 mM; cited from earlier work
[10] = in vivo; details: mouse, plasma, po, 250 mg.kg^-1
[11] = Metformin assay in plasma and tissues
[12] = test system: HFD-fed WT and KI mice; assay: Metformin in high-fat diet; details: 250 mg.kg^-1 p.o., 2 h
[13] = test system: glucose production; details: i.v. infusion; cited from earlier work
[14] = [11C]-metformin microPET; assay type: in vivo, mouse; details: acute intravenous [11C]-metformin, WT vs KI mice
[15] = test system: FBP1^WT/WT (WT) and FBP1^G27P/G27P (KI) mice; assay: AICAR tolerance in mice; assay type: in vivo, mouse; details: 250 mg.kg^-1 i.p.
[16] = test system: gastrocnemius (GAS) muscle; assay: Skeletal muscle adenine/Z nucleotides after AICAR; assay type: in vivo, mouse; details: following AICAR treatment
[17] = end of clamp, 1.875 mg.kg^-1.min^-1 i.v.

SMILES: O=P(O)(O)OC[C@H]1O[C@@](CO)(OP(=O)(O)O)[C@@H](O)[C@@H]1O [F-2,6-P2, fructose-2,6-bisphosphate]
IC50 for F-2,6-P2 [1]: increased IC50

SMILES: N#Cc1c(O)c2c(-c3ccc(-c4ccccc4O)cc3)csc2[nH]c1=O [A769662]
effect on glucose production [13]: no effect on glucose production

SMILES: CN([11CH3])C(=N)N=C(N)N [[^11C]-metformin]
kinetics and total metformin uptake in liver (PET) [14]: comparable between WT and KI mice

SMILES: NC(=O)c1ncn([C@@H]2O[C@H](CO)[C@@H](O)[C@H]2O)c1N [AICAR, 5-aminoimidazole-4-carboxamide-1-β-D-ribofuranoside]
blood lactate levels ([15]; KI mice, t = 60 min): only modestly | plasma insulin levels ([15]; WT and KI mice, t = 60 min): no significant change | decrease in blood glucose levels ([15]; WT mice, fasted 16 h): ~ 60% | blood lactate levels ([15]; WT mice, t = 60 min): marked increase | plasma glucagon levels ([15]; WT mice, t = 60 min): increased | ZMP concentration in skeletal muscle, fold less compared to liver [16]: > 50 fold | [ZMP]:[ATP] ratio in skeletal muscle, fold less compared to liver [16]: > 150 fold | phosphorylation of liver AMPK and ACC ([6]; liver, WT and KI mice, AICAR 250 mg.kg^-1 i.p., 60 min): robustly stimulated | AMPKα T172 phosphorylation and activity in skeletal muscle ([6]; skeletal muscle, both genotypes, AICAR 250 mg.kg^-1 i.p., 60 min): failed to increase

More lines, main results first:

inhibition of AMP deaminase 1 (AMPD1) [3]: Neither does it appear to inhibit | concentration at 1 h [10]: 125 to 150 µM | liver metformin level ([11]; 250 mg.kg^-1 p.o., 1 h, comparable between genotypes): ~ 0.7 μmol.g^-1 | liver metformin [11, 17]: ~ 0.8 μmol.g^-1 | plasma metformin [11, 17]: ~ 170 μM
SMILES: CN(C)C(=N)N=C(N)N [metformin, N,N-dimethylbiguanide]
direct inhibitory effect on FBP1 ([2]; purified mouse FBP1, up to 10 mM): does not have a direct inhibitory effect on FBP1 up to 10 mM | glucose infusion rate (GIR) ([4]; 1.875 mg.kg^-1.min^-1 i.v., WT (and also KI) mice): failed to increase GIR significantly from baseline | suppression of EndoRa, gluconeogenesis and glycogenolysis ([4]; 3.75 mg.kg^-1.min^-1 i.v., KI mice): ablated | glucose infusion rate (GIR) ([4]; 3.75 mg.kg^-1.min^-1 i.v., KI mice, 120 min clamp): only a modest increase in GIR | suppression of endogenous glucose production (EndoRa) ([4]; 3.75 mg.kg^-1.min^-1 i.v., WT mice): ~ 20% | glucose infusion rate (GIR) ([4]; 3.75 mg.kg^-1.min^-1 i.v., WT mice, 120 min clamp): substantial increase in GIR | increase in glucose disposal rate (Rd) ([4]; 3.75 mg.kg^-1.min^-1 i.v., both WT and KI): 40-50% | decrease in hepatic energy charge ([5]; both genotypes): ~ 10% | increase in hepatic [AMP]:[ATP] ([5]; both genotypes): ~ 2 fold | hepatic cAMP ([5]; HFD-fed mice, 2 h): no significant effect | phosphorylation of liver AMPK and ACC ([6]; mouse, in vivo, po): robust increase | plasma metformin levels, upper end of range [7]: 868 µM | plasma metformin concentration ([8]; 50 mg.kg^-1 intravenously, 30 min after administration): ~ 74 μM | plasma metformin concentration ([8]; 100 mg.kg^-1): 345 µM | plasma metformin concentration ([8]; 250 mg.kg^-1): 1300 µM | reduction in intracellular ATP concentration [9]: ~ 85% | decrease of blood glucose ([12]; HFD-fed KI mice): ~ 10% | reduction of blood glucose levels ([12]; HFD-fed WT mice): 30-40%

fold less sensitive, mouse FBP1 compared to rat FBP1 ([2]; recombinant, in vitro): ~ 2 fold
SMILES: CC(C)Cc1sc(N)nc1-c1ccc(P(=O)(O)O)o1 [MB05032, 2-amino-5-isobutyl-4-[5-phosphono-2-furanyl]thiazole]
